Columns and labels:
[1] = system: blood vessels of the chorioallantoic membrane (CAM); assay: Angiogenesis assays in the CAM (chorioallantoic membrane); type: in vivo, chicken; conditions: for percent of blood vessels oriented towards the pellet minus percent directed away: cCAF peptide 100-300 ng; for angiogenesis / oriented blood vessel growth after preincubation with antibody: peptide (100-300 ng) preincubated with excess of an antibody prepared against it; for new sprouting of blood vessels of the CAM: 4 days after application
Method: (§1) These assays were done as previously described [Martins-Green et al. (1998)]. Briefly, fertilized chicken eggs were incubated for 3 days at 37° C., at which time 2 ml of albumin were withdrawn to drop the embryo and CAM away from the shelf. Windows were made on day 4, the holes covered with transparent tape, and the eggs placed back in the incubator until day 10 when the experiment was performed. Pellets were prepared by mixing the appropriate amount of reduced and non-reduced 9E3 peptides or bFGF with 1% methylcellulose (1:1) and then delivering 5-μl droplets on a bacterial dish and allowing them to dry in a sterile hood for approximately 30 min. This procedure generated small disc-shaped pellets 2 mm in diameter and ˜0.1 mm thick. These pellets containing various concentrations of protein were placed, under sterile conditions, between two large blood vessels of the 10-day-old CAMs. Two or four days later, the pellets and the surrounding area of the CAM were fixed in situ; the CAMs were then removed and examined for the presence of chemotaxis and/or angiogenesis. Angiogenesis was quantified by analysis of blood vessel orientation and/or increase in the number of vessels and sprouts (see below). Negative control pellets were prepared in the same way with 0.5% methylcellulose alone or with the same concentration of BSA as used for the cCAF peptide or with peptide preincubated with an antibody made against it [Martins-Green et al. (1992)].
As previously described, 10-day-old CAMs were used because at this stage of development the CAM close to the embryo is fully developed; the blood vessels in this area have stopped growing and assumed a tree-like pattern with short stubby tertiary branches (FIG. 2A). […] [Martins-Green et al. (1997); Vu M T, Smith C F, Burger P C, Klintworth G K (1985) Methods in laboratory investigation. An evaluation of methods to quantitate the chick chorioallantoic membrane assay in angiogenesis. Lab Invest 4:499-508; Klagsbrun M, D'Amore P A (1991) Regulators or angiogenesis. Annu Rev Physiol 53:217-239; Cockerill G W, Gamble J R, Vadas M A (1995) Angiogenesis: models and modulators. Interntl Rev Cytol 1.59:113-160; and Swerlick R A (1995) Angiogenesis. J Dermatol 22:845-852.]
The CAMs were then analyzed by making measurements of the orientation of the blood vessels relative to the pellet. For each concentration of the C-terminal peptide and for all controls, 6-10 CAMs were measured. Vessels were classified (FIG. 2A) as primary (largest), secondary (branches of primary vessels) and tertiary (all other vessels). […] The measurements were made without prior knowledge of which specimens were controls and which were cCAF. For secondary vessels; we looked for deviations in their orientations. For tertiary vessels, each vessel was approximated by a vector pointing in its growth direction. Each vector was resolved into components directed radially and tangentially with respect to the pellet; the definition of toward or away was determined from the radial component of the vector. For graphical presentation of the data, the percent of blood vessels growing toward the pellet was determined for secondary and tertiary vessels (FIG. 5).
Quantification of blood vessel sprouting was performed as described previously [Martins-Green et al. (1998)]. Briefly, a sprout was defined as a very small blood vessel having a length of one third or less that of the tertiary branches of the normal CAM. Sprouts thus defined were counted in the areas of the CAMs with pellets containing 1000 ng of C-terminal peptide. For CAMs treated with 1000 ng/pellet of C-terminal peptide, we counted sprouts on 90 mm total of 21 individual blood vessel segments from 6 different CAMs. For the BSA controls we counted sprouts on 123 mm of 24 segments of blood vessels.

[2] = system: blood vessels of wing muscle tissue; assay: Angiogenic assays in 2-week-old chicks (peptide deposited under the skin of the wing); type: in vivo, chick; conditions: 1 μg/10 μl under the skin of the wing on two consecutive days, four days after first dose
Excerpt: Hematoxylin and eosin stained cross sections of wing muscle tissue showing organization of the muscle fibers. (A) Very few blood vessels (arrowheads) can be seen amongst the untreated muscle fibers. A large nerve bundle can be seen (black dot) associated with three small blood vessels. (B) Similar section taken from the wing of a bird that has been treated with the C-terminus peptide. Note the presence of numerous small blood vessels (arrowheads) amongst the muscle fibers. (C) Similar section from a bird treated with only buffer vehicle for the peptide. The number of blood vessels (arrowheads) is similar to that of the control. Scale bar=50 μm.
To further test the angiogenic potential of the C-terminal peptide, 1 μg of the peptide in 10 μl of water was deposited under the skin of the underside of the wing of 2-week-old chicks on two consecutive days, and the tissues prepared for histology on the fourth day.
The C-terminal peptide was deposited under the skin of the under wing of […] chicks using a procedure described previously [Martins-Green M, Boudreau N, Bissell M J (1994) Inflammation is responsible for the development of wound tumors in RSV-infected newly-hatched chicks. Cancer Res 54:4334-4341]. Two samples of 1 μg/10 μl each, were applied on two consecutive days followed by a waiting period of 3 days. […]

[3] = Time-dependent release of the 9E3 peptide from methylcellulose pellets; type: physicochemical; conditions: 300 ng 125I-labeled peptide in 0.5% methylcellulose pellet, PBS, 37° C.
Method: Samples of 280 μl of saline were removed periodically for scintillation counting and replaced by fresh saline. Error bars represent the standard deviation for 15 samples taken at each time point.
Methylcellulose pellets containing either form of the peptide at different concentrations were placed on mature CAMs [see Martins-Green M, Feugate J E (1998) The 9E3/CEF4 gene product is a chemotactic and angiogenic factor that can initiate the wound healing cascade in vivo. Cytokine 10:522-535]. Because the peptide is much smaller than cCAF itself, it is possible that release from the pellet might be much more rapid than for the entire molecule. Therefore, before performing the experiments on the CAM we determined the kinetics of release of the C-terminal peptide from pellets under reducing conditions for which the peptide will be a monomer and therefore of smallest size.
Five microliters of 0.5% methylcellulose (Fisher) containing 300 ng of ^125I-labeled 9E3 peptide were placed in the bottom of 15 Eppendorf tubes (0.5 ml), allowed to dry and then covered with 300 μl of sterile PBS containing 0.02% sodium azide and incubated at 37° C. […] The label released into the fluid was counted in a scintillation counter to determine if and over what period of time the peptide was released.

leukocytes = assay: Chemotaxis for leukocytes and tissue changes in cross sections of treated CAMs; type: in vivo, chicken; conditions: for chemotaxis for leukocytes: 100 ng
Method: The cells inside the large blood vessel are erythrocytes (these chicken cells are nucleated). […] (C) Natural CAM showing sparse cells and a single blood vessel. Scale bars=100 μm.
as §1
Although the general structure of treated and untreated CAMs is the same, some differences were seen.

[4] = supernatant of normal cultures of CEFs; cited from earlier work
[5] = CAM cross sections two days after application of pellets
[6] = higher doses, 600-1000 ng/pellet

bFGF: Basic fibroblast growth factor, positive control in the CAM assay [reference compound]
percent of blood vessels oriented towards the pellet minus percent directed away ([1]; bFGF 500 ng): marked blood vessel orientation toward the pellet | percentage of CAMs showing reorientation and/or growth of blood vessels towards the pellet ([1]; positive control, 500 ng/pellet): 100% | percent of secondary vessels deviated toward the pellet ([1]; secondary vessels, bFGF 500 ng): over 90% | percent of tertiary vessels pointing in the direction of the pellet ([1]; tertiary vessels, bFGF 500 ng): less than 80%

C-terminal peptide: last 28 aas of the C-terminus of cCAF (residues 76 to 103 of SEQ ID NO:1), with cysteine No. 4 as N-terminal most aa (CLDPTAPWVQLIVKALMAKAQLNSDAPL; Gallusgallus)
small blood vessels in muscle tissue underlying the site of application versus vehicle and normal wing [2]: many more small blood vessels | duration of slow, prolonged release from the pellet [3]: up to 48 h | period in which the majority of the peptide was released from the pellet ([3]; reducing conditions (monomer)): ≤ 6 h | hyperproliferation of the ectoderm of the CAM (leukocytes; [5]): slightly hyperproliferated | chemotaxis for leukocytes (leukocytes; [5]): no chemotaxis for leukocytes | leukocyte chemotaxis or granulation-like tissue formation (leukocytes; in vivo, CAM and chick wing): no evidence was found | number of new sprouts relative to CAMs treated with BSA ([1]; 1000 ng/pellet): about 10 times | blood vessel growth towards the pellet ([1]; 100-300 ng per pellet): stimulated the blood vessels to grow towards the pellet | tortuosity and sprouting effects after preincubation with antibody ([1]; 600-1000 ng/pellet, peptide preincubated with excess antibody directed against it): eliminated | percent of blood vessels oriented towards the pellet minus percent directed away ([1]; bFGF 500 ng): marked blood vessel orientation toward the pellet | reorientation of blood vessels [1, 6]: greatly decreased | sprouting of blood vessels [1, 6]: abundant sprouting | tortuosity of blood vessels [1, 6]: marked tortuosity | most effective doses (significant increase in angiogenic activity: tortuosity and sprouting) ([1]; localized administration in CAM assay): > 450 ng | percentage of CAMs showing reorientation and/or growth of blood vessels towards the pellet ([1]; non-reduced peptide): 94% | percentage of CAMs showing reorientation and/or growth of blood vessels towards the pellet ([1]; non-reduced peptide, listed as cCAF peptide): ~100% | angiogenesis / oriented blood vessel growth after preincubation with antibody [1]: the effect was eliminated | angiogenesis / oriented blood vessel growth after preincubation with antibody ([1]; listed as cCAF peptide): no angiogenesis was seen | percentage of CAMs showing reorientation and/or growth of blood vessels towards the pellet ([1]; peptide under reducing conditions): 96% | percentage of CAMs showing reorientation and/or growth of blood vessels towards the pellet ([1]; peptide under reducing conditions, listed as cCAF peptide): ~100% | most effective dose for oriented growth of secondary blood vessels ([1]; per pellet, secondary vessels): ~100 ng | most effective dose for oriented growth of tertiary blood vessels ([1]; per pellet, tertiary vessels): ~300 ng

IL-8: interleukin 8, ELR-CXC chemokine (SEQ ID NO:3)
new sprouting of blood vessels of the CAM ([1]; 500 ng per pellet): extensive new sprouting

B1: cCAF: Chicken chemotactic and angiogenic factor, product of the 9E3 gene, 9 kDa CXC chemokine (SEQ ID NO:1) (protein)
chain: MNGKLGAVLALLLVSAALSQGRTLVKMGNELRCQCISTHSKFIHPKSIQDVKLTPSGPHCKNVEIIATLKDGREVCLDPTAPWVQLIVKALMAKAQLNSDAPL
modifications: Gallusgallus
period for which the 9 kDa form is stable [4]: 24 h | chemotaxis for leukocytes (leukocytes; [5]): chemotactic for monocyte/macrophages and lymphocytes | new sprouting of blood vessels of the CAM ([1]; 450 ng per pellet): extensive new sprouting

Reference: US20020150553A1, “Compositions containing C-terminal polypeptides of angiogenic chemokines and methods of use” (The Regents of the University of California, priority 1999, published 2002)
